# Laboratory results from paper PMC3465485 (Antiviral research, 2012).
# Entries after “also recorded” stand apart in the source; their conditions may differ. Like-named read-outs stand apart in the source and are kept apart here.
# Legend:
# [1] = biological target: A/MS-H275Y neuraminidase (Influenza A virus (A/Mississippi/03/2001(H1N1)), UniProt C7FPR5, H275Y); assay type: biochemical
# [2] = biological target: A/HK-H275Y neuraminidase (Influenza A virus (A/Hong Kong/2369/2009(H1N1)), UniProt C6KQ69); test: biochemical
# [3] = test system: Influenza A/Mississippi/03/2001 (H1N1) H275Y (A/MS-H275Y) virus
# [4] = test system: A/Hong Kong/2369/2009 (H1N1) H275Y (A/HK-H275Y) virus
# [5] = test system: influenza A/HK-H275Y virus neuraminidase; details: NA-Star assay, ref Nguyen et al., 2010a; cited from earlier work
# [6] = test system: influenza A/MS-H275Y virus; parameters: species or system BALB/c mice; details: mouse, in vivo
# [7] = test system: influenza A/HK-H275Y virus; parameters: species or system BALB/c mice; details: mouse, in vivo
# [8] = test system: influenza A/WSN/33 (H1N1) H275Y virus; details: A/WSN/33 (H1N1) H275Y in mice, up to 10 mg/kg/day; ref Baz et al. (2009); cited from earlier work
# [9] = read-out: EC50 (50% virus-inhibitory concentration)
Compound,sensitivity of the viral neuraminidases (in words) [1],antiviral activity in cell culture (in words) [3],"EC50 [3, 9]",EC50 [4],antiviral activity in cell culture (in words) [4],IC50 [5],survival effect (in words) [6],also measured
Peramivir,resistant,decreased sensitivity,8.1 ± 5.2 µM,7.9 ± 3 µM,decreased sensitivity,9.2 µM,–,IC50 [1]: 0.038 ± 0.001 µM; IC50 [2]: 0.029 ± 0.0023 µM; SI (CC50/EC50) [3]: >12; EC50 ([3]; read-out: inhibitory concentration against the H275Y viruses in cell culture): ~8 µM; SI (CC50/EC50) [4]: >12
NC12CC3CC(CC(C3)C1)C2 [Amantadine],–,–,0.3 ± 0.05 µM,> 100 µM,not active,–,No significant effect,"survival effect (in words) ([6]; po, 3 mg/kg/day): no effect; protection from death ([6]; po, 30 mg/kg/day): 60%; protection from death ([6]; po, 100 mg/kg/day): 100%; protective activity ([6]; po, 100 mg/kg/day): 100%"
NC(=O)c1ncn([C@@H]2O[C@H](CO)[C@@H](O)[C@H]2O)n1 [Ribavirin],–,–,25 ± 4.6 µM,33 ± 13 µM,–,–,not effective,"lung virus titer versus placebo (in words) ([7]; po): significantly reduced virus titers; also recorded: not significantly lower than placebo; body weight change (in words) ([7]; po, 75 mg/kg/day): Weight decline was least severe; day of infection after which weight gain started ([7]; po, 75 mg/kg/day): > 8 days; survival effect (in words) ([7]; po, 75 mg/kg/day): fully protective"
"CCC(CC)O[C@@H]1C=C(C(=O)O)C[C@H](N)[C@H]1NC(C)=O [Oseltamivir Carboxylate, Oseltamivir carboxylate]",resistant,–,> 100 µM,> 100 µM,–,78 µM,–,IC50 ([2]; IC50): > 0.1 µM
"CCOC(=O)C1=C[C@@H](OC(CC)CC)[C@H](NC(C)=O)[C@@H](N)C1 [Oseltamivir, Oseltamivir phosphate]",–,resistant,–,–,resistant,–,not active,"protection [6]: up to 60%; survival effect (in words) ([6]; po): ineffective; benefit (in words) ([6]; po, 25 mg/kg/day): no benefit; survival (protection from death) ([6]; po, 100 mg/kg/day): 30%; survival (protection from death) ([6]; po, 300 mg/kg/day): 60%; body weight change (in words) [7]: did not fall as rapidly as in the lower dosage and placebo groups; day of infection after which body weights began to increase [7]: > 10 days; survival effect (in words) [7]: not significantly effective; benefit (in words) ([7]; po, 25 mg/kg/day): no benefit; survival (protection from death) ([7]; po, 100 mg/kg/day): 50%; survival (protection from death) ([7]; po, 300 mg/kg/day): 70%; efficacy in treating the infection (in words) [8]: ineffective; mortality rate [8]: 75%"
CC(=O)N[C@H]1[C@H]([C@H](O)[C@H](O)CO)OC(C(=O)O)=C[C@@H]1N=C(N)N [Zanamivir],sensitive,highly sensitive,0.24 ± 0.08 µM,0.36 ± 0.58 µM,highly sensitive,0.43 µM,ineffective; also recorded: delayed the time to death significantly but did little to prevent mortality,IC50 ([2]; IC50): 0.0009 ± 0.0002 µM
CC(N)C12CC3CC(CC(C3)C1)C2 (stereo not shown) [Rimantadine],–,–,0.01 ± 0.003 µM,> 22 µM,not active,–,no significant effect,SI (CC50/EC50) [3]: 2200; SI (CC50/EC50) [4]: 0
